Earlier results, collected in PMC3086271 (Biochemical Journal, 2011).
Like-named read-outs stand apart in the source and are kept apart here.

Tests used:
[1] = tested on: mean arterial blood pressure; conditions: spontaneous hypertensive rat, intravenous, 10 mg/kg of body weight
[2] = target: C-ACE of human somatic ACE; conditions: read-out: Ki for C-ACE
[3] = target: N-ACE of human somatic ACE; conditions: read-out: Ki for N-ACE

O=C(N[C@@H](Cc1ccccc1)P(=O)(O)CC(Cc1cc(-c2ccccc2)no1)C(=O)N[C@@H](Cc1ccc(O)cc1)C(=O)O)OCc1ccccc1 (stereo partly drawn) [FII, (2S)-2-({3[hydroxyl(2-phenyl-(1R)-1-{[(benzyloxy)carbonyl]-amino}ethyl)phosphinyl]-2-[(3-phenylisoxazol-5-yl)methyl]-1-oxo-propyl}amino)-3-(4-hydroxy-phenyl) propanoic acid]
lowering of mean arterial blood pressure as compared with controls [1]: 24±2 mmHg

O=C(N[C@@H](Cc1ccccc1)P(=O)(O)C1CCCC1C(=O)N[C@@H](Cc1c[nH]c2ccccc12)C(=O)O)OCc1ccccc1 (some centres unmarked) [RXPA380]
Ki ([2]; C-ACE-specific phosphinic inhibitor): 3 nM
Ki [3]: 2500 nM

NCCCC[C@H](N[C@@H](CCc1ccccc1)C(=O)O)C(=O)N1CCC[C@H]1C(=O)O [lisinopril]
Ki ([2]; C-ACE of human somatic ACE): 2.4 nM
Ki ([3]; N-ACE of human somatic ACE): 44 nM
